pIC50: −log10 of the molar value. Entries after “also recorded” stand apart in the source; their conditions may differ.
Columns and labels:
[1] = tested on: sciatic nerve; experiment: Sciatic nerve crush injury model; type: in vivo, Sprague Dawley rats; details: for functional recovery after sciatic nerve crush: 1 and 10 mg/kg
Source text: The sciatic nerve crush model is a representative model of axonal repair and regeneration. The sciatic nerve is physically crushed with forceps at the mid-thigh; only the right leg is injured, the left leg serving as a control. The axons die from the crush point to their point of innervation. Functional loss of the axons is rapidly observed as the animals drag their right leg and the toes of the right leg no longer spread. Recovery is observed in approximately 28 days as the animals regain use of their right leg. More quantitative measurements of recovery include toe spread measurements between the digits 1 and 5 and digits 2 and 4, gait analysis and electrical conductivity from the toes to the injury site (see Example 161). Male Sprague Dawley rats were anaesthetized (halothane and buprenorphine) and the right hind leg was blunt dissected to expose the sciatic nerve at mid-thigh. The nerve was crushed twice for a total of 30 seconds using No.7 Dumont jeweller's forceps. The incision is sutured and the animals are allowed to recover for 28 days. Functional recovery was measured by gait, nerve conductance and toe spread measurements between digits 1 and 5 and digits 2 and 4.

[2] = tested on: SCG neurons; experiment: Protection of SCG neurons from anti-NGF killing; type: cell-based, Sprague Dawley rats; details: Rattus norvegicus, Neuron; anti-NGF antibody, serum and NGF free 48 hours, Alamar Blue; +/−1 uM; read-out: IC(50), rescue from anti-NGF killing of SCG neurons
Protocol: Neurotrophins are critical to the growth, development, and survival of small fiber neurons of the PNS. SCG neurons are neurons of the PNS that undergo apoptosis upon NGF withdrawal. In a typical experiment SCG neurons are cultured in the presence of NGF, which induces survival and neurite out-growth. After 5 days the NGF is removed by either the addition of anti-NGF polyclonal antibody (Sigma) or by repeated washings (4 times) with NGF free media, resulting in the apoptosis of up to 90% of the neurons after 48 hours, as measured by MTS staining.
After 4 days the cells were treated with anti-NGF antibody (Sigma). At this time compound was added and the cells were maintained serum and NGF free for 48 hours, at which time viability was assessed using Alamar Blue (Medicorp) staining.

[3] = tested on: cortical neurons; experiment: Neuroprotection of cortical neurons in the presence of beta-amyloid; type: cell-based, Sprague Dawley rats; details: 10 uM compound, 10 uM 25-35 amyloid beta peptide, 48 hour
Protocol: Primary neuronal/glial cortical cultures were established from postnatal day 1 Sprague Dawley rats. Cerbral cortices were isolated and dissociated with 0.25% trypsin for 20 minutes at 37 degrees. The tissue was then triturated in PBS containing 0.1% bovine serum albumin and 0.2 mg/ml DNAse. Cells were plated in poly D-lysine coated 96 well plates at a density of 1e6 cells per mL. Cultures were maintained at 37 degrees in 5% C02/95% air for 2 weeks in Neurobasal (Gibco) supplemented with B27, glutamine, and penicillin/streptomycin. 5ng/mL AraC was added after 48 hours. After 2 weeks cells were exposed to 10 uM 25-35 amyloid beta peptide with and without 10 uM compound 76. After 2 days of treatment apoptotic cells were detected with Cy3-conjugated annexin V (Sigma).

[4] = tested on: SCG neurons; experiment: cells; type: cell-based, Sprague Dawley rats; details: Rattus norvegicus, Neuron; Taxol™ (50 ng/mL), viability 48 hours later, MTS; read-out: IC(50), protection of SCG neurons from Taxol killing
[5] = target: CA II (Homo sapiens, UniProt P00918); experiment: CA II inhibition; type: biochemical; details: read-out: IC(50), CA II inhibition
Protocol: CA II inhabition was measured using the protocol described by Pocker, Y.'Stone, J. Biochemistry 1967, 6, 668.

[6] = tested on: SCG neurons; experiment: In vitro protection of SCG neurons from vincristine killing; type: cell-based, Sprague Dawley rats; details: vincristine 100 ng/mL
Source text: Similarly, vincristine and vinblastine are commonly used anti-tumour agents whose mode of action involve tubulin binding.

[7] = tested on: Sprague Dawley rats; type: in vivo; details: rat, in vivo, 9 mg/kg
Protocol: Taxol™ commonly causes dose dependent peripheral neuropathies during cancer treatment. […] All of the Taxol™ treated animals developed peripheral neuropathies, characterized by ‘tip toe walking’. The extent of this neuropathy was analyzed by quantifying the refracted light captured by a video camera as the animals walked over a glass plate.
Adult Sprague Dawley rats were treated with Taxol™ (IP, 9 mg/kg in Cremophor EL and ethanol) twice weekly for 3 weeks (J. Neuro-Oncology (1999) 41: 107-116). Compound was administered I hour prior to Taxol™ treatment (IP, 1, 5 and 10 mg/kg in hydroxypropyl-β-cyclodextrin). Taxol™ treated control animals were treated with saline solution at the same time of Compound treated animals. Non-treated control animals were treated with saline solution as above. Weight gain was measured every second day, starting at Day 1. Gait analysis was measured by quantifying the refracted light captured by a video camera as the animals walked over a glass plate, 2 days after the final Taxol™ treatment (Physiology and Behavior (1994), 55(4): 723-726; Med. Sci. Res. (1988) 16: 901-902). […] H/M wave recovery was analyzed using standard procedures 2 days after the final Taxol™ treatment (Muscle Nerve (1998) 21: 1405-1413; Annals of Neurology (1998) 43 (1): 46-55).
Male Spraugue Dawley rats were treated with 50% HPDC vehicle (veh/veh), compound I dissolved in 50% HPDC at 1, 5, or 10 mg/kg (veh/1, veh/5, veh/10, respectively), or Taxol™ (9 mg/kg)+compound 1 dissolved in 50% HPDC at 1, 5, and 10 mg/kg (Tax/1, Tax/5, Tax/10) according to the dosing regime described in Example 160. Weight measurements were made ever other day.
Two days after the completion of drug treatments animal walking gait was analyzed according to a) total imprint area, and b) total number of contact points.
FIG. 6 illustrates the effect of Compound 1 on H-reflex amplitude, a measurement of H/M wave disturbance induced by Taxol™. Two days after the completion of drug treatments, the dorsal root ganglia and attached nerves were dissected bilaterally from L4 and L5 and their H/M wave conductance measured.

Structure (SMILES) | functional recovery after sciatic nerve crush [1] | recovery in toe spread area (inner toe spread) ([1]; versus vehicle control) | pIC50 [2] | annexin V positive (apoptotic) cells [3] | pIC50 [4] | pIC50 [5] | apoptosis of cultured SCG neurons [6] | reduction in foot-pad contact as compared to control animals [7] | weight gain over a thirteen day period [7]
COc1cccc(-c2ccc(-c3cn4nc(S(N)(=O)=O)sc4n3)cc2)c1 [Compound 76, 6-(4-(3-methoxyphenyl)phenyl)imidazo[2,1-b]-1,3,4-thiadiazole-2-sulfonamide] | improved recovery | induced increased recovery | 5.30 | prevents the occurrence of annex in V stained cells; also recorded: prevented the appearance of annexinV positive cells | 5.70 | 6.28 | – | – | –
NS(=O)(=O)c1nn2cc(-c3cc4ccccc4o3)nc2s1 [Compound 111, 6-(Benzo[b]furan-2-yl)imidazo[2,1-b]-1,3,4-thiadiazole-2-sulfonamide] | improved recovery | – | 5.15 | – | 5.70 | 4.27 | – | – | –
CC[C@]1(O)C[C@H]2CN(CCc3c([nH]c4ccccc34)[C@@](C(=O)OC)(c3cc4c(cc3OC)N(C=O)[C@H]3[C@@](O)(C(=O)OC)[C@H](OC(C)=O)[C@]5(CC)C=CCN6CC[C@]43[C@@H]65)C2)C1 [vincristine, reference compound] | – | – | – | – | – | – | ≥ 80% | – | –
CC(=O)O[C@H]1C(=O)[C@@]2(C)[C@H]([C@H](OC(=O)c3ccccc3)[C@]3(O)C[C@H](OC(=O)[C@H](O)[C@@H](NC(=O)c4ccccc4)c4ccccc4)C(C)=C1C3(C)C)[C@]1(OC(C)=O)CO[C@@H]1C[C@@H]2O [Taxol™, reference compound] | – | – | – | – | – | – | – | 46% | no weight gain

— patent US7772260B2, “Imidazo[2,1-b]-1,3,4-thiadiazole sulfonamides” (Aegera Therapeutics Inc., priority 2001, dated 2010)
